Entries after “also recorded” stand apart in the source; their conditions may differ. Read-outs that look alike come from different tables or passages of the source.
How the values were obtained:
[1] = tested on: Senescent cells (SnC); test: Cell survival EC50 of MDM2 inhibitors, senescent cells; settings: for EC50: read-out: Cell survival data EC50 SnC
[2] = tested on: quiescent high density non senescent cells (HD NsC); test: Cell survival EC50 of MDM2 inhibitors, quiescent high density non senescent cells; settings: read-out: Cell survival data EC50 HD NsC
[3] = tested on: non-senescent IMR90 cells; test: CellTiter-Glo cell viability assay, non-senescent IMR90; type: cell-based; settings: Homo sapiens, IMR-90, 72 h, IMR90, 3 days
Protocol: (§1) To determine whether ABT-263 is selectively toxic to senescent cells compared to non-senescent cells, a cell viability assay was used to assess cell survival following treatment with ABT-263. IMR90 cells (human primary lung fibroblasts (IMR90) (IMR-90 (ATCC® CCL-186™, Mannassas, Va.) were seeded in six well plates, and cells were induced to senescence with 10 Gy of ionizing radiation (IR) (Day 0). The media was refreshed every 3 days. The senescent phenotype is allowed to develop for 7 days at which point a cell count was made to determine the baseline number of cells followed by seeding into 96-well plates. On day 8, the senescent cells (irradiated) and the non-senescent cells (the non-radiated cells), were exposed to serial dilutions of ABT-263 for a period of 3 days. ABT-263 concentrations ranged from 0.5 nM to 3 μM. Each condition was seeded in triplicate.
(§2) After three days of treatment (Day 11), cells were assayed for cell survival using the commercially available CellTiter-Glo® (CTG) Luminescent Cell Viability Assay (Promega Corporation, Madison, Wis.). The assay determines the number of viable cells in culture based on the quantitation of ATP present which is an indicator of metabolically active cells.
(§3) The experiments performed for assessing the effect of these other Bcl-2 inhibitors were performed essentially as described in Example 7. Cells were exposed to ABT-199 at serial dilution concentrations ranging from 15 nM to 100 μM (FIGS. 26 and 27). Cells were exposed to Obatoclax at concentrations ranging from 1.4 nM to 9 μM (FIG. 28).
(§4) The effect of ABT-263 in combination with the Akt inhibitor MK-2206 was tested for selective toxicity of senescent cells compared to non-senescent cells in IMR90 cells. The methods of Example 7 were repeated except that cell cultures were exposed to 10 nM MK-2206 (Selleckem, Cat# S1078) in addition to serial dilutions of ABT-263.

[4] = tested on: p16-3MR mice; test: Senescence induced by chemotherapeutic drugs in p16-3MR mice (luminescence, skin mRNA); type: in vivo, mouse; settings: for level of senescent cells (luminescence): p<0.05
Protocol: Paclitaxel induces senescence and SASP in p16-3MR transgenic mice. Groups of mice (n=4) were treated three times every two days with 20 mg/kg paclitaxel or vehicle. […] The level of mRNA in skin was determined for each of the target genes: p16, 3MR transgene, and IL-6.
To examine senescence induced by different chemotherapeutic drugs, groups of p16-3MR animals (n=4) were treated with thalidomide (100 mg/kg; 7 daily injections); romidepsin (1 mg/kg; 3 injections); pomalidomide (5 mg/kg; 7 daily injections); lenalidomide (50 mg/kg; 7 daily injections); 5-azacytidine (5 mg/kg; 3 injections) and compared with doxorubicin (10 mg/kg, 2-4 injections over 7 days).

[5] = tested on: senescent (irradiated) IMR90 cells; test: CellTiter-Glo cell viability assay, senescent IMR90; type: cell-based, human
Protocol: as §1, §2, §3, §4

| Structure (SMILES) | EC50 dose ratio HD NsC/SnC [1] | EC50 [1] [µM] | EC50 [2] [µM] | other results |
| --- | --- | --- | --- | --- |
| CCCCn1c(=O)[nH]c(O)c(C2NCCc3c2[nH]c2ccccc32)c1=O (centres unmarked) [MEL23, 3-Butyl-6-hydroxy-5-(2,3,4,9-tetrahydro-1H-pyrido[3,4-b]indol-1-yl)pyrimidine-2,4(1H,3H)-dione] | 5.2 | 4 | 20.9 | selectivity for senescent cells over quiescent cells ([1]; listed as Me123): high specificity; also recorded: particularly high selectivity |
| COC1=CC(c2cc3ccccc3[nH]2)=N/C1=C\c1[nH]c(C)cc1C [Obatoclax] | – | – | – | IC50 ([3]; read-out: IC50 in non-senescent cells): 0.075 µM |
| O=C(/C=C/c1ccc(I)cc1)c1ccc(B(O)O)cc1 [Boronate, trans-4-Iodo, 4′-boranyl-chalcone] | 14.1 | 10.8 | 153 | selectivity for senescent cells over quiescent cells [1]: particularly high selectivity; selectivity for senescent cells over quiescent cells ([1]; listed as boronate): high specificity |
| CC(C)[C@@H](CS(=O)(=O)C(C)C)N1C(=O)[C@@](C)(CC(=O)O)C[C@H](c2cccc(Cl)c2)[C@H]1c1ccc(Cl)cc1 [AMG-232, 2-((3R,5R,6S)-5-(3-chlorophenyl)-6-(4-chlorophenyl)-1-((S)-1-(isopropylsulfonyl)-3-methylbutan-2-yl)-3-methyl-2-oxopiperidin-3-yl)acetic acid] | 1.2 | 3.4 | 4.1 | – |
| Nc1cccc2c1C(=O)N(C1CCC(=O)NC1=O)C2=O (centres unmarked) [omalidomide] | – | – | – | level of senescent cells (luminescence) [4]: significant levels of senescent cells |
| Cn1c(=O)c([N+](=O)[O-])c(Cl)c2ccccc21 [ML214] | – | – | – | level of killing of senescent cells versus non-senescent cells ([5]; irradiated and non-senescent IMR90): comparable to the level of killing of non-senescent cells |
| O=C1c2c(c(-c3ccccc3)nn2Cc2ccccc2)C(c2ccc(Br)cc2)N1CCCn1ccnc1 (centres unmarked) [CAY10681, 4-(4-bromophenyl)-4,5-dihydro-5-[3-(1H-imidazol-1-yl)propyl]-3-phenyl-1-(phenylmethyl)-pyrrolo[3,4-c]pyrazol-6(1H)-one] | 1.6 | 11 | 17.6 | – |
| OCc1ccc(-c2ccc(-c3ccc(CO)s3)o2)s1 [RITA, 5,5′-(2,5-Furandiyl)bis-2-thiophenemethanol] | 0.9 | 254 | 223 | – |
| CC(=O)O[C@H]1C(=O)[C@@]2(C)[C@H]([C@H](OC(=O)c3ccccc3)[C@]3(O)C[C@H](OC(=O)[C@H](O)[C@@H](NC(=O)c4ccccc4)c4ccccc4)C(C)=C1C3(C)C)[C@]1(OC(C)=O)CO[C@@H]1C[C@@H]2O [paclitaxel] | – | – | – | senescence shown by luminescence ([4]; 20 mg/kg three times every two days): Senescence was observed; levels of mRNA for p16, 3MR and IL-6 in skin ([4]; 20 mg/kg three times every two days, versus vehicle): increased |
| COc1cc(C(=O)O)ccc1NC(=O)[C@@H]1N[C@@H](CC(C)(C)C)[C@](C#N)(c2ccc(Cl)cc2F)[C@H]1c1cccc(Cl)c1F [RG7388, 4-[[(2R,3S,4R,5S)-3-(3-chloro-2-fluorophenyl)-4-(4-chloro-2-fluorophenyl)-4-cyano-5-(2,2-dimethylpropyl)pyrrolidine-2-carbonyl]amino]-3-methoxybenzoic acid] | 1.0 | 32.8 | 31.5 | – |
| COc1cccc2c1C(=O)c1c(O)c3c(c(O)c1C2=O)C[C@@](O)(C(=O)CO)C[C@@H]3O[C@H]1C[C@H](N)[C@H](O)[C@H](C)O1 [doxorubicin] | – | – | – | level of senescent cells (luminescence) [4]: significant levels of senescent cells |
| CC1(C)CCC(CN2CCN(c3ccc(C(=O)NS(=O)(=O)c4ccc(NCC5CCOCC5)c([N+](=O)[O-])c4)c(Oc4cnc5[nH]ccc5c4)c3)CC2)=C(c2ccc(Cl)cc2)C1 [ABT-199, 4-[4-[[2-(4-Chlorophenyl)-4,4-dimethylcyclohex-1-en-1-yl]methyl]piperazin-1-yl]-N-[[3-nitro-4-[[(tetrahydro-2H-pyran-4-yl)methyl]amino]phenyl]sulfonyl]-2-[(1H-pyrrolo[2,3-b]pyridin-5-yl)oxy]benzamide] | – | – | – | IC50 ([5]; Homo sapiens, IMR-90, 72 h, IMR90, 3 days, read-out: IC50 in senescent cells): 6.9 to 12.4 µM; selective targeting of senescent cells over non-senescent cells ([5]; IMR90): inability; IC50 ([3]; CellTiter-Glo, read-out: IC50 on non-senescent cells): 6 to 15.8 µM |
| Nc1cccc2c1CN(C1CCC(=O)NC1=O)C2=O (centres unmarked) [lenalidomide] | – | – | – | level of senescent cells (luminescence) [4]: significant levels of senescent cells |
| O=C1c2c(c(-c3ccccc3)nn2Cc2ccc(F)cc2)C(c2ccc(Br)cc2)N1CCCn1ccnc1 (centres unmarked) [CAY10682, 4-(4-bromophenyl)-1-[(4-fluorophenyl)methyl]-4,5-dihydro-5-[3-(1H-imidazol-1-yl)propyl]-3-phenyl-pyrrolo[3,4-c]pyrazol-6(1H)-one] | 1.3 | 11.2 | 14.3 | – |
| c1ccc2c(CCNc3ccc(Nc4ccncc4)cc3)c[nH]c2c1 [JNJ 26854165, N1-(2-(1H-indol-3-yl)ethyl)-N4-(pyridin-4-yl)benzene-1,4-diamine] | 6.5 | 1 | 6.6 | selectivity for senescent cells over quiescent cells [1]: high specificity; also recorded: particularly high selectivity |
